Source: patent US20230218542A1, “MEDICAMENT FOR TREATING HYPERTENSION” (priority 2022, published 2023)

System: L-NAME-induced hypertensive rats
Test: Therapeutic effect on L-NAME-induced hypertensive rats (Effect Verification 1), tail artery pressure
Format: in vivo, SD rats
Conditions: for antihypertensive effect (overall finding): SBP and DBP, three weeks of administration; for comparison of SBP with that in the group M: after the end of the administration (third week)
Method: The tail artery pressure, including systolic blood pressure (SBP) and diastolic blood pressure (DBP), was measured in rats in the resting state at the same time using an ALC-NIBP noninvasive blood pressure measuring instrument. One hundred and fifty-two 6-week-old male SD rats were taken and subjected to adaptive feeding for one week at room temperature of 18-26° C. with the relative humidity of 40%-70% and illumination by artificial lighting from 9:00 to 21:00 every day. After one week, blood pressure in all of them was measured, the results were charted using Excel 2010, and the experimental data were analyzed using SPSS 20.0, where P < 0.05 indicated statistical significance and the measurement data were expressed as x̅ ± s. […] According to the commonly used grading criteria for hypertension, SBP 140 mmHg is the critical value of hypertension, and every 20 mmHg is one grade. Every 10 mmHg of DBP is one grade. Therefore, SBP > 140 mmHg is set as mild hypertension and SBP > 160 mmHg is set as moderate hypertension; optionally, DBP increased by more than 10 mmHg is mild hypertension and DBP increased by more than 20 mmHg is moderate hypertension.
Rats with the blood pressure in the normal range measured in the step 1 above and the weight of 200 ± 20 g were randomly taken and grouped into 7 groups: a control group (K) containing 8 rats, a model control group (M), a ligustrazine administration group (TMP, 60 mg/kg), a cannabidiol administration group (CBD, 60 mg/kg), and combined administration groups of TMP and CBD (divided into three groups in different ratios of 2:1 (XA), 1:1 (XB) and 1:2 (XC), TMP = 60 mg/kg, and CBD was 30 mg/kg, 60 mg/kg and 120 mg/kg, respectively). 10 rats were contained in each remaining group. Except for group K, 12 mg/kg L-NAME was administered intragastrically to the rest at 9:00 every day to manufacture a hypertension model, and distilled water was administered in an equal amount to K group. By the fourth week, blood pressure was measured in each group, and after individuals with SBP < 140 mmHg were excluded from the model, each group was administered for three weeks, and drug vehicles were administered in an equal amount to groups K and M. Blood pressure was measured once a week during the administration period. (The animal model was fasted for two hours before the administration, and the medicament was bathed to room temperature. TMP solution at 1 mL/100 g was firstly administered intragastrically to the combined administration groups of TMP and CBD, and after 1 h interval, CBD solution at the corresponding half volume was then administered intragastrically.)
One-way ANOVA analysis (Duncan) was used for pairwise comparisons among groups, and paired-sample t-test was used for before-and-after comparisons within groups. The change trend of SBP of rats in each group is shown in FIG. 2 and the change trend of DBP of rats in each group is shown in FIG. 3, and the abscissa “0” represents the fourth week of molding, i.e., the beginning of the administration period.

[1] = one week of intragastric administration
[2] = three weeks of intragastric administration
[3] = two weeks of intragastric administration

| Compound | antihypertensive effect (overall finding) | comparison of SBP with that in the group M | Effect = (SBP in model group - SBP in administration group)/(SBP in model group - SBP in control group) [1] | Effect = (SBP in model group - SBP in administration group)/(SBP in model group - SBP in control group) [2] | Effect = (SBP in model group - SBP in administration group)/(SBP in model group - SBP in control group) [3] | decrease of SBP (after the end of the administration) |
| --- | --- | --- | --- | --- | --- | --- |
| ligustrazine phosphate [TMP] | no significant antihypertensive effect | no significant difference | 0.0716 | 0.1722 | 0.0780 | – |
| C=C(C)[C@@H]1CCC(C)=C[C@H]1c1c(O)cc(CCCCC)cc1O [CBD, cannabidiol] | significant antihypertensive effect | significant difference | 0.3222 | 0.3418 | 0.3628 | more than 10 mmHg |
